The record followed here is patent US9296734B2 (AMGEN INC., priority 2013, dated 2016).

Read-outs that look alike come from different tables or passages of the source.

Assay [1] relates to Aβ40 in conditioned medium of cells stably expressing Amyloid Precursor Protein (APP). Put plainly: In vitro BACE cell-based assay (Aβ40 sandwich ELISA). Conditions: Homo sapiens, read-out: HEK cell assay IC50. How it is done: In Vitro BACE Cell-Based Assay
The cell-based assay measures inhibition or reduction of Aβ40 in conditioned medium of test compound treated cells expressing amyloid precursor protein.
Cells stably expressing Amyloid Precursor Protein (APP) were plated at a density of 40K cells/well in 96 well plates (Costar). The cells were cultivated for 24 hours at 37° C. and 5% CO2 in DMEM supplemented with 10% FBS. The test compounds were then added to cells in 10-point dose response concentrations with the starting concentration being either 100 μM or 10 μM. The compounds were diluted from stock solutions in DMSO and the final DMSO concentration of the test compounds on cells was 0.1%. After 24 h of incubation with the test compounds the supernatant conditioned media was collected and the Aβ 40 levels were determined using a sandwich ELISA. The IC50 of the compound was calculated from the percent of control or percent inhibition of Aβ 40 as a function of the concentration of the test compound.
The sandwich ELISA to detect Aβ 40 was performed in 96 well microtiter plates, which were pre-treated with goat anti-rabbit IgG (Pierce). The capture and detecting antibody pair that were used to detect Aβ 40 from cell supernatants were affinity purified pAb40 (Biosource) and biotinylated 6E10 (Signet Labs Inc.), respectively. The optimal concentration for the pAb40 antibody was 3 μg/ml in Superblock/TBS (Pierce) that was supplemented with 0.05% Tween 20 (Sigma).
Cellular supernatants were incubated with the capture antibody for 3 h at 4° C., followed by 3 wash steps in TBS-tween (0.05%). The detecting antibody incubation was for 2 h at 4° C., again followed by the wash steps as described previously. The final readout of the ELISA is Time-Resolved Fluorescence (counts per minute) using Delfia reagents Streptavidin-Europium and Enhancement solutions (Perkin Elmer) and the Victor 2 multilabel counter (Perkin Elmer).
(In general: In an ELISA, binding on a coated surface is turned into a signal by an enzyme label.)

The next assay addresses Cathepsin D (Cat D) (Homo sapiens (Human), UniProt P07339). Put plainly: In vitro enzymatic Cathepsin D (Cat D) FRET assay. The format is biochemical. Particulars: read-out: CatD IC50. In short, it runs like this:
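CHO-expressed recombinant Cat D cleaves a fluorophore/quencher FRET peptide (20 nM) in 0.05 M citrate pH 3.5, 5 mM CHAPS, 10% DMSO final, over 1 h. Tris addition neutralizes pH to stop the reaction; fluorescence read at excitation 500 nm, emission 580 nm.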

Assay [2] addresses Beta Secretase enzyme (BACE) (Homo sapiens (Human), UniProt P56817). Put plainly: In vitro enzymatic BACE FRET assay. The format is biochemical. Particulars: read-out: BACE 1 FRET assay IC50. The procedure: In Vitro Enzymatic BACE FRET (Fluorescence Resonance Energy Transfer) Assay (Enzyme Assay Data in the Example Table I)
The assay buffer used in this screen is 0.05 M acetate, pH 4.2, 10% DMSO final, 100 uM genapol (which is a nonionic detergent, below its Critical Micelle Concentration). […] This assay is effectively started by the addition of FRET substrate (50 nM) and the combination is incubated for one hour. The FRET assay is terminated with by addition of Tris buffer, which raises the pH to neutrality, and the fluorescence is determined. The FRET substrate is a peptide with commercially available fluorophore and quencher, on opposite sides of the BACE cleavage site.

Where [3] appears, read: HEK293, average IC50, HEK cell assay.
Where [4] appears, read: average IC50, cathepsin D enzyme assay.
The mark [5] stands for this setting: average IC50, BACE enzyme assay.

Sequence of Beta Secretase enzyme (BACE) (P56817 46-501): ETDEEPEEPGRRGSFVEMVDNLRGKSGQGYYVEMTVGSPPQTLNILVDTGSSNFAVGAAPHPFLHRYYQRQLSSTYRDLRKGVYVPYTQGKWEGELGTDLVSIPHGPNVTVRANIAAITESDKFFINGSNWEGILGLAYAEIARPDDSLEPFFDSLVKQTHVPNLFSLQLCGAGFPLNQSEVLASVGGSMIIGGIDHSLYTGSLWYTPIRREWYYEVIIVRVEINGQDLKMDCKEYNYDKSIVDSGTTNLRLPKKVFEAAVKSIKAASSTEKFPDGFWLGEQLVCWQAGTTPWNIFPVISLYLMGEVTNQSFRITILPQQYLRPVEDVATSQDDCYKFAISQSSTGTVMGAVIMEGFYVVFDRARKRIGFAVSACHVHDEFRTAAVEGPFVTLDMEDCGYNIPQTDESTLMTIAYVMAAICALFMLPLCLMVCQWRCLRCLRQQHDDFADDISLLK
Sequence of Cathepsin D (Cat D) (P07339 65-412, species assumed): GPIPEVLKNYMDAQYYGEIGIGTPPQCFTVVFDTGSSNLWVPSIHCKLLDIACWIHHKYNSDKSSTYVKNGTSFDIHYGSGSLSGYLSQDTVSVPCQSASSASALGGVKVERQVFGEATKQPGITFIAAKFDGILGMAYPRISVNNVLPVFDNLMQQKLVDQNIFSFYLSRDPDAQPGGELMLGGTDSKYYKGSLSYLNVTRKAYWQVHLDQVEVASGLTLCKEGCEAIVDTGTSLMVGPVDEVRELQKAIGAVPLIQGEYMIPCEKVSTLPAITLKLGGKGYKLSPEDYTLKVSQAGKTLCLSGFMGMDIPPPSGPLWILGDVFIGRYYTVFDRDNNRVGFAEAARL

Regarding `C[C@@]1(c2cc(NC(=O)c3ccc(Cl)cn3)ccc2F)C[C@@H](C(F)(F)F)OC(N)=N1` [Example 26, N-(3-((4S,6S)-2-amino-4-methyl-6-(trifluoromethyl)-5,6-dihydro-4H-1,3-oxazin-4-yl)-4-fluorophenyl)-5-chloropicolinamide], the IC50 in assay [1] (HEK293, average IC50, HEK cells) is 4.9 nM; at Cathepsin D (Cat D) (average IC50), > 400000 nM; in assay [2] (average IC50), 12.3 nM.
As to `C#CCOc1ccc(C(=O)Nc2ccc(F)c([C@]3(C)C[C@@H](C(F)(F)F)OC(N)=N3)c2)nc1` [Example 28, N-(3-((4S,6S)-2-amino-4-methyl-6-(trifluoromethyl)-5,6-dihydro-4H-1,3-oxazin-4-yl)-4-fluorophenyl)-5-(prop-2-yn-1-yloxy)picolinamide], the IC50 in assay [1] (setting [3]) was 9.3 nM; at Cathepsin D (Cat D) (setting [4]), 666000 nM; in assay [2] (setting [5]), 17.6 nM.
On the same counts, the results for `C[C@@]1(c2cc(Nc3nc4ccc(Cl)cc4o3)ccc2F)C[C@@H](C(F)(F)F)OC(N)=N1` [Example 29, N-(3-((4S,6S)-2-amino-4-methyl-6-(trifluoromethyl)-5,6-dihydro-4H-1,3-oxazin-4-yl)-4-fluorophenyl)-6-chlorobenzo[d]oxazol-2-amine] are 3010 nM, 210000 nM and > 40000 nM.
`C[C@@]1(c2cc(Nc3nc4cc(Cl)ccc4o3)ccc2F)C[C@@H](C(F)(F)F)OC(N)=N1` [Example 30, N-(3-((4S,6S)-2-amino-4-methyl-6-(trifluoromethyl)-5,6-dihydro-4H-1,3-oxazin-4-yl)-4-fluorophenyl)-5-chlorobenzo[d]oxazol-2-amine]: the figures for the IC50 (in assay [1] (setting [3]); on Cathepsin D (Cat D) (setting [4]); in assay [2] (setting [5])) were 2880 nM, 162000 nM and 26800 nM, respectively.
Take `NC1=N[C@](CF)(c2cc(NC(=O)c3ncc(Cl)cc3F)ccc2F)C[C@@H](C(F)(F)F)O1` [Example 34, N-(3-((4S,6S)-2-amino-4-(fluoromethyl)-6-(trifluoromethyl)-5,6-dihydro-4H-1,3-oxazin-4-yl)-4-fluorophenyl)-5-chloro-3-fluoropicolinamide]: the half-inhibitory concentration (IC50) in assay [1] (setting [3]) was 42 nM; at Cathepsin D (Cat D) (setting [4]), > 400000 nM; in assay [2] (setting [5]), 51 nM.
Take `CC#CCOc1cnc(C(=O)Nc2ccc(F)c([C@]3(CF)C[C@@H](C(F)(F)F)OC(N)=N3)c2)cn1` [Example 39, N-(3-((4S,6S)-2-amino-4-(fluoromethyl)-6-(trifluoromethyl)-5,6-dihydro-4H-1,3-oxazin-4-yl)-4-fluorophenyl)-5-(but-2-yn-1-yloxy)pyrazine-2-carboxamide]: the results for the IC50 (in assay [1] (setting [3]); at Cathepsin D (Cat D) (setting [4]); in assay [2] (setting [5])) were 3.2 nM, > 400000 nM and 0.7 nM, respectively.
The corresponding values for `NC1=N[C@](CF)(c2cc(NC(=O)c3ncc(C(F)F)cc3Cl)ccc2F)C[C@@H](C(F)(F)F)O1` [Example 40, N-(3-((4S,6S)-2-amino-4-(fluoromethyl)-6-(trifluoromethyl)-5,6-dihydro-4H-1,3-oxazin-4-yl)-4-fluorophenyl)-3-chloro-5-(difluoromethyl)picolinamide] are 105 nM, > 400000 nM and 130 nM.
The corresponding values for `NC1=N[C@](CF)(c2cc(NC(=O)c3ccc(C(F)F)cn3)ccc2F)C[C@@H](C(F)(F)F)O1` [Example 41, N-(3-((4S,6S)-2-amino-4-(fluoromethyl)-6-(trifluoromethyl)-5,6-dihydro-4H-1,3-oxazin-4-yl)-4-fluorophenyl)-5-(difluoromethyl)picolinamide] are 88 nM, > 400000 nM and 72 nM.
With `Cc1cc(OC(F)F)cnc1C(=O)Nc1ccc(F)c([C@]2(CF)C[C@@H](C(F)(F)F)OC(N)=N2)c1` [Example 42, N-(3-((4S,6S)-2-amino-4-(fluoromethyl)-6-(trifluoromethyl)-5,6-dihydro-4H-1,3-oxazin-4-yl)-4-fluorophenyl)-5-(difluoromethoxy)-3-methylpicolinamide], the figures for the IC50 (in assay [1] (setting [3]); on Cathepsin D (Cat D) (setting [4]); in assay [2] (setting [5])) were 51 nM, > 400000 nM and 26 nM, respectively.

By IC50 is commonly meant the concentration at which inhibition is half-maximal.
